Test results published in patent US11976059B2 (KOREA RESEARCH INSTITUTE OF CHEMICAL TECHNOLOGY, priority 2018, dated 2024).
pIC50: −log10 of the molar value.

Target: EGFR L858R/T790M/C797S mutant enzyme (Homo sapiens (Human), UniProt P00533, C797S/L858R/T790M)
Assay: EGFR mutant enzyme inhibition, HTRF system (Cisbio)
Type: biochemical
Conditions: ATP 1 mM, 37° C. for 2 hours
Protocol: In order to evaluate the inhibitory activity of the compound represented by formula 1 according to the present invention against EGFR mutation, the following experiment was performed.
The activity of the compound of the present invention against EGFR mutant enzyme was measured using the HTRF system of Cisbio Co. As an EGFR L858R/T790M/C797S mutant enzyme, a protein provided by SignalChem was purchased and used as an enzyme source.
The composition of the assay buffer used for the activity measurement was as follows: 50 mM Tris-HCl (pH 7.5), 100 mM NaCl, 7.5 mM MgCl2, 3 mM KCl, 0.01% Tween 20, 0.1% BSA, and 1 mM DTT. Herein, an enzyme reaction was performed using a peptide substrate labeled with ATP at the concentration of 1 mM and biotin at the concentration of 0.5 μM. The analysis of the EGFR activity inhibitory effect of the compound was performed according to the following analytical reaction recipe.
Component 1: 4 μl of EGFR mutant enzyme
Component 2: 2 μl of compound solution
Component 3: 4 μl of ATP and biotin-labeled peptide mixture
The enzyme reaction was initiated by mixing the component 1 and the component 2 first and then adding the component 3 thereto. After reacting the mixture at 37° C. for 2 hours, 10 μl of a measurement solution consisting of streptavidin-XL665 and europium-labeled anti-phosphotyrosine antibody provided by Cisbio was added to the enzyme reaction solution, followed by reaction at room temperature for 1 hour. Finally, the ratio of the fluorescence values at 615 nm and 665 nm was calculated using Envision equipment of Perkin-Elmer to quantitatively measure the enzyme activity and confirm the inhibitory ability of the compound. The values measured at 7 concentrations of the compound were analyzed using Prism program (version 5.01, Graphpad Software, Inc.), and the IC50 value, an index of the inhibitory ability of the compound, was calculated.

Sequence of EGFR L858R/T790M/C797S mutant enzyme (P00533 25-1210 T790M/C797S/L858R): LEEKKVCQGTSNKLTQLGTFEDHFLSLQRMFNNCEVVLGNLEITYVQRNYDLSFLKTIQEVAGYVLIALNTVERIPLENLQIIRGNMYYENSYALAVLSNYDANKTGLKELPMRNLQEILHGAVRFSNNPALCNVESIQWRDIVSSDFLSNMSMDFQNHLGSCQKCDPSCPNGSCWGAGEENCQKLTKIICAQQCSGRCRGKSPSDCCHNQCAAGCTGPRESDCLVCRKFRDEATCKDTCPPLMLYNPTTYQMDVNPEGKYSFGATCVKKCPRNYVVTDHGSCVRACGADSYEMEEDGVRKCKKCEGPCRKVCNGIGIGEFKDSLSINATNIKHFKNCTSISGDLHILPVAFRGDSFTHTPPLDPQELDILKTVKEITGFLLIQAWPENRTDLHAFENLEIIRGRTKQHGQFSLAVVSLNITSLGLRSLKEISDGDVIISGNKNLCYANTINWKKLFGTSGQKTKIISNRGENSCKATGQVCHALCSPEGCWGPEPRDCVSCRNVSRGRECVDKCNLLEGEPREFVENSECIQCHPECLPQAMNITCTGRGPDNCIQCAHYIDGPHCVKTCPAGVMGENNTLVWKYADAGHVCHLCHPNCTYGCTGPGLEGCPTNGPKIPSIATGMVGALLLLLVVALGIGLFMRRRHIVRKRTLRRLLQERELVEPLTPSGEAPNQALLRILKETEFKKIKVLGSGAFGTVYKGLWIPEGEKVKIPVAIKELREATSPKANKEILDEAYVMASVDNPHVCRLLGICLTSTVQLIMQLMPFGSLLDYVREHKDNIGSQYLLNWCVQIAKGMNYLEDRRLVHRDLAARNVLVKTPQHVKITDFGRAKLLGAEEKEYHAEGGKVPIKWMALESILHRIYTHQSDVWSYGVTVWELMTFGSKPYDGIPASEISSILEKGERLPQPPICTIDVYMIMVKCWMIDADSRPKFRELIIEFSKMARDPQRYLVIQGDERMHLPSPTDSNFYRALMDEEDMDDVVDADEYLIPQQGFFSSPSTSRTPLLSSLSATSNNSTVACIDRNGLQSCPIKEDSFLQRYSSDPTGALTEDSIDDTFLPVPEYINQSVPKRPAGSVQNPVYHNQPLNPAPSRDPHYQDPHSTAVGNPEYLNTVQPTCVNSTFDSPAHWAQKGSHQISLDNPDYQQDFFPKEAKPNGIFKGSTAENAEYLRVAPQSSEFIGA

Row | Compound | pIC50
1 | O=C1c2cc(-c3ccc(N4CCOCC4)cc3)ccc2CN1C(c1nc2ccccc2[nH]1)c1cc(Cl)ccc1O (stereo not drawn) [Example 40, 2-((1H-benzo[d]imidazole-2-yl)(5-chloro-2-hydroxyphenyl)methyl)-6-(4-morpholinophenyl)isoindolin-1-one] | 6.43
2 | O=C1c2cc(-c3ccc(-c4ccncc4)cc3)ccc2CN1C(c1nc2ccccc2[nH]1)c1cc(F)ccc1O (stereo not drawn) [Example 41, 2-((1H-benzo[d]imidazole-2-yl)(5-fluoro-2-hydroxyphenyl)methyl)-6-(4-(pyridine-4-yl)phenyl)isoindolin-1-one] | 6.66
3 | O=C1c2cc(-c3ccc(-c4ccncc4)cc3)ccc2CN1C(c1nc2ccccc2[nH]1)c1cc(Cl)ccc1O (stereo not drawn) [Example 42, 2-((1H-benzo[d]imidazole-2-yl)(5-chloro-2-hydroxyphenyl)methyl)-6-(4-(pyridine-4-yl)phenyl)isoindolin-1-one] | 6.35
4 | CN1CCN(c2ccc(-c3ccc4c(c3)C(=O)N([C@@H](c3cc5ccccc5[nH]3)c3cc(Cl)ccc3O)C4)cc2)CC1 [Example 44, (R)-2-((5-chloro-2-hydroxyphenyl)(1H-indole-2-yl)methyl)-6-(4-(4-methylpiperazine-1-yl)phenyl)isoindolin-1-one] | 6.72
5 | O=C1c2cc(-c3ccc(-c4ccncc4)cc3)ccc2CN1[C@@H](c1cc2ccccc2[nH]1)c1cc(F)ccc1O [Example 47, (R)-2-((5-fluoro-2-hydroxyphenyl)(1H-indole-2-yl)methyl)-6-(4-(pyridine-4-yl)phenyl)isoindolin-1-one] | 7.07
6 | O=C1c2cc(-c3ccc(-c4ccncc4)cc3)ccc2CN1[C@@H](c1cc2ccccc2[nH]1)c1cc(Cl)ccc1O [Example 48, (R)-2-((5-chloro-2-hydroxyphenyl)(1H-indole-2-yl)methyl)-6-(4-(pyridine-4-yl)phenyl)isoindolin-1-one] | < 5.00

Further lines, results first:

Row | pIC50 | Compound
7 | 6.68 | CN1CCN(c2ccc(-c3ccc4c(c3)C(=O)N([C@@H](c3cc5ccccc5[nH]3)c3cc(F)ccc3O)C4)cc2)CC1 [Example 43, (R)-2-((5-fluoro-2-hydroxyphenyl)(1H-indole-2-yl)methyl)-6-(4-(4-methylpiperazine-1-yl)phenyl)isoindolin-1-one]
8 | 6.55 | O=C1c2cc(-c3ccc(N4CCOCC4)cc3)ccc2CN1[C@@H](c1cc2ccccc2[nH]1)c1cc(F)ccc1O [Example 45, (R)-2-((5-fluoro-2-hydroxyphenyl)(1H-indole-2-yl)methyl)-6-(4-morpholinophenyl)isoindolin-1-one]
9 | 6.96 | O=C1c2cc(-c3ccc(N4CCOCC4)cc3)ccc2CN1[C@@H](c1cc2ccccc2[nH]1)c1cc(Cl)ccc1O [Example 46, (R)-2-((5-chloro-2-hydroxyphenyl)(1H-indole-2-yl)methyl)-6-(4-morpholinophenyl)isoindolin-1-one]
10 | 7.16 | O=C1c2cc(-c3ccc(N4CCNCC4)cc3)ccc2CN1[C@@H](c1cc2cccnc2[nH]1)c1cc(F)ccc1O [Example 49, (R)-2-((5-fluoro-2-hydroxyphenyl)(1H-pyrrolo[2,3-b]pyridine-2-yl)methyl)-6-(4-(piperazine-4-yl)phenyl)isoindolin-1-one]
11 | 6.38 | O=C1c2cc(-c3ccc(N4CCNCC4)cc3)ccc2CN1[C@@H](c1cc2cccnc2[nH]1)c1cc(Cl)ccc1O [Example 50, (R)-2-((5-chloro-2-hydroxyphenyl)(1H-pyrrolo[2,3-b]pyridine-2-yl)methyl)-6-(4-(piperazine-4-yl)phenyl)isoindolin-1-one]
12 | 6.19 | O=C1c2cc(-c3ccc(N4CCNCC4)cc3)ccc2CN1[C@@H](c1cc2cc(F)ccc2[nH]1)c1cc(F)ccc1O [Example 51, (R)-2-((5-fluoro-1H-indole-2-yl)(5-fluoro-2-hydroxyphenyl)methyl)-6-(4-(piperazine-1-yl)phenyl)isoindolin-1-one]
